Data published in publication PMC4585259 (Frontiers in Pharmacology, 2015).
Like-named read-outs stand apart in the source and are kept apart here.

Target: T1, rNav1.2 sodium channels (Rattus norvegicus, UniProt P04775)
T1 construct: host or cells: HEK-293
Experiment: QPatch automated patch clamp, inhibition of sodium currents evoked by 5 Hz trains at three extracellular pH values
Format: cell-based
Conditions: for class of pH-dependence pattern (cluster analysis): Ward's method on 18 variables of affinity, reversibility, onset; for τoffset / τonset: concentration (lidocaine 300 μM, memantine 30 μM)
Protocol: HEK-293 cells stably expressing rNav1.2 sodium channels were obtained from NeuroSearch (Ballerup, Denmark). The cells were grown in Dulbecco's modified Eagle medium supplemented with 10% FBS. Prior to use, the cells were trypsinized and subsequently kept in suspension in the QPatch cell storage facility in CHO-S- SFM-II medium.
Composition of the extracellular solution was: (in mM): 140 NaCl, 3 KCl, 1 CaCl2 1 MgCl2, 0.1 CdCl2, 20 TEA-Cl, 5 HEPES, adjusted to pH 7.3, Osmolality: 320 mOsm. […] Drugs were synthesized in Gedeon Richter Plc. […] The full list of drugs, with their three-letter codes, concentration, as well as their main therapeutic indication and main mechanism of action are shown in Table 1. […] The choice of concentrations used in this study may seem unusually high.
Data were sampled at a frequency of 25 kHz and filtered at 5 kHz. Junction potential was calculated to be −11 mV and was corrected for. […] Cells having membrane resistance < 500 MOhm, series resistance > 9 MOhm, or capacitance > 22 pF were excluded from analysis. The experimental protocol was also identical to the one used in our previous study: sodium channels were activated by 5 Hz trains of 5 depolarizations (−90 to −10 mV) repeated in every 20 s. In this study, however, the same control–drug-application–washout sequence was repeated four times: at neutral, acidic, alkalic, and again neutral pH. The peak amplitudes of sodium currents throughout the whole experiment are shown plotted against time in Figure 1 and Supplementary Figure 1.
Initial analysis, including subtraction of leak and capacitive artifacts, as well as peak detection were done in the QPatch software. […] All experiments were normalized to the amplitude of the current evoked by the first depolarization of the last train under control conditions. […] For all four drug applications in an experiment, apparent affinity, onset and offset time constants as well as reversibility values were calculated. […] (This method is equivalent to applying the Lineweaver-Burk plot method using a single concentration.) Reversibility values were calculated from control (c), inhibited (i), and wash-out (w) amplitudes as follows: Reversibility = (w-i)/(c-i). Reversibility values should not be regarded as experimental platform-independent properties of compounds. […] However, reversibility values are a valuable source of information regarding physicochemical differences between individual drugs, or between effects of the same drug under different extracellular pH conditions. Onset and offset time constants were determined by single exponential fitting to individual experiments. For neutral pH numerical data were given as the average of the data from the first and the last drug applications. Thin black lines on Figure 1 and Supplemental Figure 1 show the average of five fitted exponentials, (not the exponential fitted to the averaged normalized amplitudes). The numerical values of apparent affinity, onset and offset time constants and reversibility are shown in Table 2, and their relative position is illustrated in Figure 2. Affinity and time constant values were logarithmically transformed for statistics, therefore we show their geometric mean. For recovery data no transformation was done, and we show arithmetic mean values. Significance values were calculated using paired, two-tailed Student's t-test based on five pairs of apparent affinity (log transform), time constant (log transform), or reversibility values obtained from five individual experiments. Because of the large number of comparisons in this study, we accepted p < 0.01 as significant. Cluster analysis was done using Ward's minimum variance method, with Euclidean distance measure. Data were normalized by subtracting the mean (after logarithmic transformation in the case of apparent affinity and time constants), and dividing by the standard deviation.

[1] = pH 6.0, single concentration (lidocaine 300 μM, memantine 30 μM), geometric mean of 5, read-out: apparent affinity
[2] = pH 7.3, single concentration (lidocaine 300 μM, memantine 30 μM), geometric mean of 5, read-out: apparent affinity
[3] = pH 8.6, single concentration (lidocaine 300 μM, memantine 30 μM), geometric mean of 5, read-out: apparent affinity
[4] = pH=6.0, cc 30 mM, read-out: Apparent Affinity
[5] = pH=7.3, cc 30 mM, read-out: Apparent Affinity
[6] = pH=8.6, cc 30 mM, read-out: Apparent Affinity

T1 sequence (P04775 whole entry): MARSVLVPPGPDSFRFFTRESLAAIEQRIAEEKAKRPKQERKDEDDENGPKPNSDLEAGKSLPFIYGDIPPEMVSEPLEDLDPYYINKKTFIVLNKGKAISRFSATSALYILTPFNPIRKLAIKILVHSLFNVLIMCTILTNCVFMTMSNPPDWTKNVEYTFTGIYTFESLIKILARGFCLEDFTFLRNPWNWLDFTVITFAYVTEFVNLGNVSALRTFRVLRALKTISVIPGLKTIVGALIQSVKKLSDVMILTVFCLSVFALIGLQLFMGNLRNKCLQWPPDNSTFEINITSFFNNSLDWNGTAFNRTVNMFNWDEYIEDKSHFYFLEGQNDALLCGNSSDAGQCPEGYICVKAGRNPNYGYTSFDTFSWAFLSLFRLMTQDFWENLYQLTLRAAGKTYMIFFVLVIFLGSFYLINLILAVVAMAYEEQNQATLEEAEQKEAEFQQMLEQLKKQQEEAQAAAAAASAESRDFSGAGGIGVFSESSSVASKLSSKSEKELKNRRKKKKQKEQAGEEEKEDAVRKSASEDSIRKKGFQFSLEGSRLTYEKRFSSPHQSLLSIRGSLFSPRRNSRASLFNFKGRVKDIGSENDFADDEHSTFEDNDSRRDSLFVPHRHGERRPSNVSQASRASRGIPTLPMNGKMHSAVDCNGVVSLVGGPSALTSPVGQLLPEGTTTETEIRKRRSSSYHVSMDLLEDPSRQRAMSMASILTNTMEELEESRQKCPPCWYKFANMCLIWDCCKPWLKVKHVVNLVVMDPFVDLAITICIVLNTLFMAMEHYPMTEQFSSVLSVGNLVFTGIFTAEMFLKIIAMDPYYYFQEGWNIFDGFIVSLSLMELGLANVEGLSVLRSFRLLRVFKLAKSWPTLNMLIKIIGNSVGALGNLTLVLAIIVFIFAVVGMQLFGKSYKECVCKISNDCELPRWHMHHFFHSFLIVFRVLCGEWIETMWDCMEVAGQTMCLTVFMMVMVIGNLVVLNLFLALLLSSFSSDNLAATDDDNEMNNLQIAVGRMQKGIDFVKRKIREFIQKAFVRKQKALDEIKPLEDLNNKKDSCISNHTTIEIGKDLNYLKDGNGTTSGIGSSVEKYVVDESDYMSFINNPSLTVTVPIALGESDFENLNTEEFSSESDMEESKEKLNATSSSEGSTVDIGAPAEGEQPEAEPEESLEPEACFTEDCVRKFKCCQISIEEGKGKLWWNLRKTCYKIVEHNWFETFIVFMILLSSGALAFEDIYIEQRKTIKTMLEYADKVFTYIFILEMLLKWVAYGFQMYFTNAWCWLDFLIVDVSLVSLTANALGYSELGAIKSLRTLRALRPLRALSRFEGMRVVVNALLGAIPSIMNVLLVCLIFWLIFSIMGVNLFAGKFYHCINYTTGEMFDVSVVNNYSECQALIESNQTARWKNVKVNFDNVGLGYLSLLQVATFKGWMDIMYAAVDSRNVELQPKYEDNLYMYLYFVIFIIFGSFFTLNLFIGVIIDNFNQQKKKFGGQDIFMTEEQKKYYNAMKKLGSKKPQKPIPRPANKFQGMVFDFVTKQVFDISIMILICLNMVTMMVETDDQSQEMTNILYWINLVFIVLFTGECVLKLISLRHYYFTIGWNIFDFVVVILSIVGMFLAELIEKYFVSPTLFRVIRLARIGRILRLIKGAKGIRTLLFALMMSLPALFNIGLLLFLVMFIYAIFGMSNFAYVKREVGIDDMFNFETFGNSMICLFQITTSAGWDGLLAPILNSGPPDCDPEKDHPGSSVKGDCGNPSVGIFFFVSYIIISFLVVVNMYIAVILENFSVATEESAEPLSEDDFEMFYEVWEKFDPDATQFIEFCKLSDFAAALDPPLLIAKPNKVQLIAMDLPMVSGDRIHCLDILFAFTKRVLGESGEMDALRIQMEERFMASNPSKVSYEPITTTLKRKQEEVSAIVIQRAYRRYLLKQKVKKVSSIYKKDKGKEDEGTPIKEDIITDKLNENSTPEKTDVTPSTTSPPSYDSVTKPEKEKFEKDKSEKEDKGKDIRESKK

With `CCc1nn(CCCN2CCN(c3cccc(Cl)c3)CC2)c(=O)n1CCOc1ccccc1` [nefazodone] the “class of pH-dependence pattern (cluster analysis)” value (“class of pH-dependence pattern” for short) was “Class G”, the alkalization-induced recovery (neutral-to-alkalic solution exchange, in words) was “prominent alkalization-induced recovery” and the “reversibility at all three pH values” (pH 6.0, 7.3 and 8.6) was “below 0.6”. For the same molecule, the “Ratio Reversibility” value (pH 6.0/7.3, cc 30 mM) was 0.854, the “Ratio Tau Offset” value (pH 6.0/7.3, cc 30 mM) was 0.978 and the “Ratio Tau Onset” value (pH 6.0/7.3, cc 30 mM) was 0.875. For the same molecule, the “log Ratio App Aff” value (pH 6.0/7.3, cc 30 mM) was 0.341, the “Ratio Reversibility” value (pH 6.0/8.6, cc 30 mM) was 1.152 and the “Ratio Tau Offset” value (pH 6.0/8.6, cc 30 mM) was 0.825. For the same molecule, the “Ratio Tau Onset” value (pH 6.0/8.6, cc 30 mM) was 0.863, the “log Ratio App Aff” value (pH 6.0/8.6, cc 30 mM) was 0.122 and the τoffset (pH 6.0) was 13.20 s. The τonset (pH 6.0) was 12.60 s, the Kd [1] was 38.2 µM and the “Ratio Reversibility” value (pH 7.3/8.6, cc 30 mM) was 1.349. For the same molecule, the “Ratio Tau Offset” value (pH 7.3/8.6, cc 30 mM) was 0.844, the “Ratio Tau Onset” value (pH 7.3/8.6, cc 30 mM) was 0.986 and the “log Ratio App Aff” value (pH 7.3/8.6, cc 30 mM) was -0.220. The τoffset (pH 7.3) was 13.50 s, the τonset (pH 7.3) was 14.40 s and the Kd [2] was 17.4 µM. For the same molecule, the τoffset (pH 8.6) was 16.00 s, the τonset (pH 8.6) was 14.60 s and the Kd [3] was 28.9 µM. For the same molecule, the Reversibility (pH=6.0, cc 30 mM) was 0.51, the Kd [4] was 38.2 µM and the Reversibility (pH=7.3, cc 30 mM) was 0.59. The Kd [5] was 17.4 µM, the Reversibility (pH=8.6, cc 30 mM) was 0.44 and the Kd [6] was 28.9 µM.

`CNCCC(Oc1ccccc1OC)c1ccccc1` (stereo not drawn) [nisoxetine] showed a Kd (Apparent Affinity, pH=6.0, cc 100 mM) of 210 µM, a Kd (Apparent Affinity, pH=7.3, cc 100 mM) of 80.1 µM and a Kd (Apparent Affinity, pH=8.6, cc 100 mM) of 28.6 µM. The “class of pH-dependence pattern” value was “Class F”, the Kd (apparent affinity, pH 6.0, single concentration (lidocaine 300 μM, memantine 30 μM), geometric mean of 5) was 210 µM and the Kd (apparent affinity, pH 7.3, single concentration (lidocaine 300 μM, memantine 30 μM), geometric mean of 5) was 80.1 µM. The Kd (apparent affinity, pH 8.6, single concentration (lidocaine 300 μM, memantine 30 μM), geometric mean of 5) was 28.6 µM, the “Ratio Reversibility” value (pH 6.0/7.3, cc 100 mM) was 1.076 and the “Ratio Tau Offset” value (pH 6.0/7.3, cc 100 mM) was 0.636. For the same molecule, the “Ratio Tau Onset” value (pH 6.0/7.3, cc 100 mM) was 0.550, the “log Ratio App Aff” value (pH 6.0/7.3, cc 100 mM) was 0.419 and the “Ratio Reversibility” value (pH 6.0/8.6, cc 100 mM) was 1.973. For the same molecule, the “Ratio Tau Offset” value (pH 6.0/8.6, cc 100 mM) was 0.947, the “Ratio Tau Onset” value (pH 6.0/8.6, cc 100 mM) was 1.245 and the “log Ratio App Aff” value (pH 6.0/8.6, cc 100 mM) was 0.867. For the same molecule, the τoffset (pH 6.0) was 19.60 s, the τonset (pH 6.0) was 13.20 s and the “Ratio Reversibility” value (pH 7.3/8.6, cc 100 mM) was 1.833. For the same molecule, the “Ratio Tau Offset” value (pH 7.3/8.6, cc 100 mM) was 1.489, the “Ratio Tau Onset” value (pH 7.3/8.6, cc 100 mM) was 2.263 and the “log Ratio App Aff” value (pH 7.3/8.6, cc 100 mM) was 0.448. It also gave a τoffset (pH 7.3) of 30.82 s, a τonset (pH 7.3) of 23.99 s and a τoffset (pH 8.6) of 20.70 s. For the same molecule, the τonset (pH 8.6) was 10.60 s, the Reversibility (pH=6.0, cc 100 mM) was 0.75 and the Reversibility (pH=7.3, cc 100 mM) was 0.69. For the same molecule, the Reversibility (pH=8.6, cc 100 mM) was 0.38.

In the case of `Fc1ccc([C@@H]2CCNC[C@H]2COc2ccc3c(c2)OCO3)cc1` [paroxetine], the “class of pH-dependence pattern” value is reported as “Class C”, the “effect of alkalic pH on onset/offset kinetics” value (in words) is reported as “acceleration of onset” and the “Ratio Reversibility” value (pH 6.0/7.3, cc 30 mM) is reported as 1.674. For the same molecule, the “Ratio Tau Offset” value (pH 6.0/7.3, cc 30 mM) was 0.896, the “Ratio Tau Onset” value (pH 6.0/7.3, cc 30 mM) was 1.411 and the “log Ratio App Aff” value (pH 6.0/7.3, cc 30 mM) was 0.413. For the same molecule, the “Ratio Reversibility” value (pH 6.0/8.6, cc 30 mM) was 6.394, the “Ratio Tau Offset” value (pH 6.0/8.6, cc 30 mM) was 1.191 and the “Ratio Tau Onset” value (pH 6.0/8.6, cc 30 mM) was 2.000. For the same molecule, the “log Ratio App Aff” value (pH 6.0/8.6, cc 30 mM) was 0.762, the τoffset (pH 6.0) was 33.83 s and the τonset (pH 6.0) was 47.12 s. The Kd [1] was 49.6 µM, the “Ratio Reversibility” value (pH 7.3/8.6, cc 30 mM) was 3.820 and the “Ratio Tau Offset” value (pH 7.3/8.6, cc 30 mM) was 1.329. The “Ratio Tau Onset” value (pH 7.3/8.6, cc 30 mM) was 1.418, the “log Ratio App Aff” value (pH 7.3/8.6, cc 30 mM) was 0.349 and the τoffset (pH 7.3) was 37.75 s. The τonset (pH 7.3) was 33.39 s, the Kd [2] was 19.2 µM and the τoffset (pH 8.6) was 28.40 s. The τonset (pH 8.6) was 23.55 s, the Kd [3] was 8.57 µM and the Reversibility (pH=6.0, cc 30 mM) was 0.65. The Kd [4] was 49.6 µM, the Reversibility (pH=7.3, cc 30 mM) was 0.39 and the Kd [5] was 19.2 µM. For the same molecule, the Reversibility (pH=8.6, cc 30 mM) was 0.10 and the Kd [6] was 8.57 µM.
